Source: patent publication US20090029367A1 (AstraZeneca AB, priority 2005, published 2009)

Legend:
[1] = biological target: PON1 (Homo sapiens, UniProt P27169); conditions: cited from earlier work
[2] = test system: alanine aminotransferase (ALAT); test: ALAT elevation during longer-term treatment with ximelagatran (clinical trials); type: in vivo, human
Excerpt: Phase III clinical trials have been performed using fixed doses of melagatran and ximelagatran for the prevention of VTE in hip or knee replacement surgery. In addition, clinical trials have been performed using ximelagatran for the treatment and long-term secondary prevention of VTE, and for the prevention of stroke in patients with non-valvular atrial fibrillation. Ximelagatran has also been tested for secondary thrombosis prophylaxis post-myocardial infarction/acute coronary syndrome (ACS).
Alanine aminotransferrase (ALAT) is an enzyme mostly expressed in the liver (EC 2.6.1.2). It is also called serum glutamate pyruvate transaminase (SGPT) or alanine transaminase (ALT). This enzyme is release into the plasma by liver cell death, which is a normal event. However, when liver cell death increases, ALAT levels rise above the normal range. The spill-over of this enzyme into blood is routinely measured as a marker of abnormal liver-cell damage. For example, alcoholic or viral hepatitis will increase ALAT levels, as will severe congestive heart failure. ALAT is also markedly raised in hepatitis and other acute liver damage. An elevated ALAT in the presence of normal levels of plasma alkaline phosphatase helps distinguish liver disease caused by liver-cell damage from diseases caused by problems in biliary ducts. Elevations of ALAT are normally measured in multiples of the upper limit of normal (ULN), with a reference range of 15-45 U/L in most laboratories. In 1987, in a study of 19,877 healthy Air Force recruits, only 99 (0.5%) had confirmed ALAT elevations (as reviewed in Green & Flamm (2002) Gastroenterology 123:1367-1384).
The increase in ALAT values with ximelagatran usually occurred within the first 6 months of treatment and were mainly asymptomatic. […] Subject to the future regulatory approval of ximelagatran, regular liver function testing (LFT) using an appropriate algorithm may be required if ximelagatran is used for treatment periods exceeding a month. […]

Sequence of PON1 (P27169 whole entry): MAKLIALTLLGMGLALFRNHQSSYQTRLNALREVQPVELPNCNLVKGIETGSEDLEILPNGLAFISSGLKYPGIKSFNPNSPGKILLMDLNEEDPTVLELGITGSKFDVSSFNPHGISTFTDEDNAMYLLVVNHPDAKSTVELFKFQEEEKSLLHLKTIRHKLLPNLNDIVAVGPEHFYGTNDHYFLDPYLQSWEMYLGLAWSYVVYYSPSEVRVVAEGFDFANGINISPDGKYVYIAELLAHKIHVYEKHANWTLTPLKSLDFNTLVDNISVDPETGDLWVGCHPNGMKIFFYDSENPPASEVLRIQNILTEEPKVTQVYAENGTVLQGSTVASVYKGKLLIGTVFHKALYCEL

| Compound | hydrolysis by PON1 [1] | patients exhibiting levels of alanine aminotransferase (ALAT) 3-fold or more above the upper limit of normal (≧3×ULN) ([2]; longer-term treatment (>35 days), 1.2% in the comparator groups) [%] | reversibility of ALAT increases ([2]; regardless of whether treatment was continued or discontinued) | time of occurrence of the increase in ALAT values ([2]; usually, of treatment, mainly asymptomatic) [months] |
| --- | --- | --- | --- | --- |
| CC[C@H](C)C(=O)O[C@H]1CCC=C2C=C[C@H](C)[C@H](CC[C@@H]3C[C@@H](O)CC(=O)O3)[C@H]21 [mevastatin] | hydrolyzed by PON1 |  |  |  |
| CC[C@H](C)C(=O)O[C@H]1C[C@@H](C)C=C2C=C[C@H](C)[C@H](CC[C@@H]3C[C@@H](O)CC(=O)O3)[C@H]21 [lovastatin] | hydrolyzed by PON1 |  |  |  |
| CC(=O)S[C@@H]1CC2=CC(=O)CC[C@]2(C)[C@H]2CC[C@@]3(C)[C@@H](CC[C@@]34CCC(=O)O4)[C@H]12 [spironolactone] | hydrolyzed by PON1 |  |  |  |
| CCOC(=O)CN[C@@H](C(=O)N1CC[C@H]1C(=O)NCc1ccc(/C(N)=N\O)cc1)C1CCCCC1 [ximelagatran, EtOOC—CH2—(R)Cgl-Aze-Pab-OH] |  | 7.9 | reversible in most patients | ≤ 6 |
